The values below come from ChEMBL document CHEMBL1135853, “Structure-activity relationships of the peptide deformylase inhibitor BB-3497: modification of the metal binding group” (Bioorg Med Chem Lett, 2002).

The test system of one experiment is Staphylococcus capitis. Put plainly: Compound was evaluated for antibacterial activity against Staphylococcus capitis. The experiment is classed as functional.
Experiment [1] concerns Escherichia coli. Nature of the experiment: Compound was evaluated for antibacterial activity against Escherichia coli. Type of experiment: functional.
Experiment [2] has as its system Escherichia coli. Put plainly: Compound was evaluated for antibacterial activity against Escherichia coli in the range of 75-100 uM; Exerted a moderate antibacterial effect. Type of experiment: functional.
Experiment [3] has as its target Peptide deformylase (Escherichia coli) (UniProt P0A6K3). Nature of the experiment: Compound was evaluated for inhibition of peptide deformylase, PDF.Ni of Escherichia coli at concentration of 1 uM.

In brackets after ≈: the same amount, converted by molar mass.

Chain of Peptide deformylase (Escherichia coli) (P0A6K3 whole entry, looked up): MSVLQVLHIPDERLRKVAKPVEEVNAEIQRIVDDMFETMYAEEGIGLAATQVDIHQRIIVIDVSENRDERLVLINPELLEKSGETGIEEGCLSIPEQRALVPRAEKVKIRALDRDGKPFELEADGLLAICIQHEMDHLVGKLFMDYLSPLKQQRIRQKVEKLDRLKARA

What is called MIC is the least concentration at which growth counts as inhibited. High values mean weaker potency, low ones greater potency. For the compound `CCCC[C@H](CC(=O)NN)C(=O)N[C@H](C(=O)N(C)C)C(C)(C)C`, the MIC in the experiment with Staphylococcus capitis and in the experiment on Escherichia coli [1] was above 200 µM throughout.
As for `CCCC[C@H](CN(O)C(N)=O)C(=O)N[C@H](C(=O)N(C)C)C(C)(C)C`, the MIC in the experiment on Staphylococcus capitis and against Escherichia coli [1] was above 200 µM each time.
`CCCC[C@H](CS)C(=O)N[C@@H](CCCCN)C(=O)Nc1ccc([N+](=O)[O-])cc1` displayed an MIC against Escherichia coli [2] of 75 µM (≈ 30.8 µg/mL).
The term inhibition denotes the change of the read-out against control, counted positive when it falls. Compound `CCCC[C@H](OC(=O)NO)C(=O)N[C@H](C(=O)N(C)C)C(C)(C)C` registered an inhibition in experiment [3] of 20%. Moreover, the MIC in the experiment on Staphylococcus capitis and against Escherichia coli [1] was above 200 µM each time.
On to `CCCC[C@H](NC(=O)NO)C(=O)N[C@H](C(=O)N(C)C)C(C)(C)C`, for which, in experiment [3], the inhibition is 40%. Besides, the MIC in the experiment on Staphylococcus capitis and against Escherichia coli [1] was above 200 µM each time.
Turning to `CCCC[C@H](NCC(=O)O)C(=O)N[C@H](C(=O)N(C)C)C(C)(C)C`, the MIC against Staphylococcus capitis and against Escherichia coli [1] was above 200 µM throughout.
Regarding `CCCCC(CP(=O)(O)O)C(=O)N[C@H](C(=O)N(C)C)C(C)(C)C` (stereo partly specified), the MIC with Staphylococcus capitis and against Escherichia coli [1] was above 200 µM throughout.
Compound `CCCC[C@H](CS)C(=O)N[C@H](C(=O)N(C)C)C(C)(C)C` returned an inhibition in experiment [3] of 10%. Also, the MIC with Staphylococcus capitis and with Escherichia coli [1] was above 200 µM in each case.
Take `CCCC[C@H](CC(=O)O)C(=O)N[C@H](C(=O)N(C)C)C(C)(C)C`: the MIC with Staphylococcus capitis and in the experiment on Escherichia coli [1] was above 200 µM in each case.
As for `CCCCC(C[PH](=O)O)C(=O)N[C@H](C(=O)N(C)C)C(C)(C)C` (stereo partly specified), the MIC in the experiment with Staphylococcus capitis and with Escherichia coli [1] was above 200 µM throughout.
For the compound `CCCCC(CC(=N)NO)C(=O)N[C@H](C(=O)N(C)C)C(C)(C)C` (stereo partly specified), the MIC in the experiment on Staphylococcus capitis and against Escherichia coli [1] was above 200 µM each time.
The compound `CCCC[C@H](CN(O)C(C)=O)C(=O)N[C@H](C(=O)N(C)C)C(C)(C)C` had an inhibition in experiment [3] of 60%. For the same compound, the MIC in the experiment on Staphylococcus capitis and in the experiment with Escherichia coli [1] was above 200 µM each time.
For the compound `CCCC[C@H](CC(=O)NO)C(=O)N[C@H](C(=O)N(C)C)C(C)(C)C`, the MIC against Staphylococcus capitis was 100 µM (≈ 32.9 µg/mL); with Escherichia coli [1], 25 µM (≈ 8.24 µg/mL).
On the same counts, the results for `CCCC[C@H](CNC=O)C(=O)N[C@H](C(=O)N(C)C)C(C)(C)C` are above 200 µM and above 200 µM.
